Read-outs that look alike come from different tables or passages of the source.
Tests used:
benzodiazepine receptor = assay: Inhibition of [3H]diazepam binding to benzodiazepine receptor (crude mitochondrial fraction of rat cerebral cortex); set-up: species or system male SD rats; conditions: in words
Description: The affinity of the compound of the present invention to a benzodiazepine receptor was investigated using radioactive [^3 H] diazepam.
Capability of specific binding to a benzodiazepin receptor was determined in accordance with the method described in the literature (Nature, 266, 732 (1977); European J. Pharmacol., 48, 263 (1978). Specifically, a crude mitochondrial fraction obtained from the cerebral cortex of male SD rats at 9 to 10 weeks of age was suspended in 50 mM Tris-HCL buffer (pH 7.4), and incubated, together with several concentrations of the subject drug and ^3 H-diazepam (final concentration 2 nM), at 4° C. for 20 minutes. This suspension was then filtered through a Whatman GF/B glass fiber filter, and the ^3 H-diazepam radioactivity on the filter was measured using a liquid scintillation counter. The concentration of the subject drug at which ^3 H-diazepam binding was inhibited by 50% was taken as the IC50 value.
Results from a typical compounds (VI) and (VIII) of the present invention and the corresponding racemic modifications thereof are shown in Table 1.

Male rats (SD/JCL) = assay: Antianxiety action (Vogel method, anticonflict water drinking test in rats); assay type: in vivo, rat (SD/JCL); conditions: for minimal effective dose: Rattus norvegicus, rats; for antianxiety action stronger than that of the corresponding racemic modification: from MED values of Table 2
[1] = po, 0.5 h, p.o., 30 minutes after dosing, water drinking frequency in 3 minutes, read-out: Minimum Effective Dose (MED), antianxiety action (Vogel method)
[2] = ip, 0.05 h, i.p., water drinking frequency in 3 minutes, read-out: Minimum Effective Dose (MED), antianxiety action (Vogel method)

SMILES	affinity to the benzodiazepin receptor versus racemic modification (benzodiazepine receptor)	minimal effective dose (Male rats (SD/JCL); [1])	minimal effective dose (Male rats (SD/JCL); [2])	antianxiety action stronger than that of the corresponding racemic modification (Male rats (SD/JCL))	minimal effective dose (Male rats (SD/JCL); po, 0.5 h, P.O., read-out: MED for antianxiety action in rats)
O=C(CC1c2ccccc2C(=O)N1c1ccc2ccc(Cl)nc2n1)N1CCC2(CC1)OCCO2 (racemic) [Racemic modification of (VI), reference compound]	nearly fully potent action	10 mg/kg	–	–	–
O=C(CC1c2ccccc2C(=O)N1c1ccc2ccc(Cl)nc2n1)N1CCC(O)CC1 (racemic) [Racemic modification of (VIII), reference compound]	–	–	20 mg/kg	–	–
O=C(C[C@H]1c2ccccc2C(=O)N1c1ccc2ccc(Cl)nc2n1)N1CCC(O)CC1 [(VIII), (S)-(+)-2-(7-chloro-1,8-naphthylidin-2-yl)-3-[(4-hydroxypiperidin-1-yl)carbonylmethyl]isoindolin-1-one]	–	–	5 mg/kg	4 times	–
O=C(C[C@H]1c2ccccc2C(=O)N1c1ccc2ccc(Cl)nc2n1)N1CCC2(CC1)OCCO2 [(VI), (S)-(+)-2-(7-chloro-1,8-naphthylidin-2yl)-3-[(1,4-dioxa-8-azaspiro[4.5]dec-8-yl)carbonylmethyl]isoindolin-1-one]	no enhanced affinity	1.25 mg/kg	–	8 times	≤ 1.25 mg/kg

From patent US5273978A, “Optically active isoindoline derivatives, their production and use” (Takeda Chemical Industries, Ltd., priority 1991, dated 1993)
